Each structure is given as a SMILES string.

One may read the inhibition as the drop in the measured response relative to a control, in per cent.

Holding throughout (assay type): cell-based
What all share (design): expressed in transfected cells; host or cells: HEK293 cells transfected with VIPR2 in pCDNA3.1 (as described)

The target of assay [1] is T1, VIPR2 (Homo sapiens, UniProt P41587).
T1 sequence (P41587 24-438): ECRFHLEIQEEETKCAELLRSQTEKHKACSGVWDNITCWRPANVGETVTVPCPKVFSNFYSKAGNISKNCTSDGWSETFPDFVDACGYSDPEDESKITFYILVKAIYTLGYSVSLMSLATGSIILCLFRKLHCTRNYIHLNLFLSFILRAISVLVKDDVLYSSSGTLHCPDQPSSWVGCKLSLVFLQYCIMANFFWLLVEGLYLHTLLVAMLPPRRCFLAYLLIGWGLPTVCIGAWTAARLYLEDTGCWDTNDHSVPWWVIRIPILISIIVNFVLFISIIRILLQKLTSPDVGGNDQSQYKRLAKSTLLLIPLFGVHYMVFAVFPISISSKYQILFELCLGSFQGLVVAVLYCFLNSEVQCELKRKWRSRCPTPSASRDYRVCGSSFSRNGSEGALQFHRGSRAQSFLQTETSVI
Nature of the assay: Inhibition of VIP-induced β-arrestin recruitment (% Activity Arrestin). From the text:
(§1) In a further non-limiting embodiment of the invention, the ability of a compound to inhibit VIPR2 GPCR activity may be tested, for example, using the PathHunter® eXpress β-Arrestin GPCR system (Discoverx Corporation, Fremont, Calif., US), as used by Chu et al., 2010, Molecular Pharmacol. 7795-101. In this assay, β-Arrestin is fused to the “Enzyme Acceptor” (“EA”), an N-terminal deletion mutant of β-gal, and the GPCR of interest is fused to a smaller (42 amino acids), weakly complementing portion of the β-gal enzyme (termed “ProLink™”). In cells that stably express these fusion proteins, the interaction of β-Arrestin and the GPCR following ligand stimulation forces the complementation of the two β-gal fragments resulting in the formation of a functional enzyme that converts substrate to detectable signal. In the absence of an interaction between the GPCR and β-Arrestin, the enzyme activity is low due to the low affinity of the two enzyme fragments. For example, a nucleic acid encoding VIPR2, for example hVIPR2, may be cloned into the ProLink vector (DiscoveRx) for GPCR-ProLink fusion protein production. Parental HEK293 cells that stably express β-arrestin2-β-gal-EA fusion protein (DiscoveRx) may be detached and transiently transfected with the VIPR2-containing vector using Fugene6 transfection reagent in suspension mode. Transfected cells in assay medium may be plated into test plates, for example at 15,000 cells/25 μl/well. After overnight incubation, 500 nl of an inhibitor or test inhibitor may be introduced into the test plate followed by 2 h incubation at 37° C., 5% CO2. Flash detection reagents may be added at 12.5 μl/well. After 5 min to 1 h of room-temperature incubation, the cell plates may be read on CLIPR (PerkinElmer Life and Analytical Sciences)or Acquest (Molecular Devices, Sunnyvale, Calif.) for luminescence signal.
(§2) A series of compounds were prepared using a synthetic method analogous to that set forth in Scheme 1, above, and then tested for their ability to inhibit VIP-induced cAMP elevation and β-arrestin recruitment.
(§3) A series of compounds were prepared using a synthetic method analogous to that set forth in Scheme 1, above, and then tested for their ability to inhibit VIP-induced cAMP elevation and β-arrestin recruitment, as described herein (Discoverx Corporation, Fremont, Calif., US). Compound activities were also tested in a BRET-based assay, as described herein. The results are shown below in Tables 1-4, above.
(Arrestin recruitment assays detect the binding of arrestin to an activated receptor.)

In assay [2] the target is T1, VIPR2. Briefly: Inhibition of VIP-induced cAMP elevation (% Activity cAMP).
Source text: (§4) In a further non-limiting embodiment of the invention, the ability of a compound to inhibit VIPR2 and thereby […] a VIP-induced increase in cAMP may be measured using a Homogeneous Time-Resolved Fluorescence (“HTRF® assay; Cisbio Bioassays) as used in Chu et al., 2010, Molecular Pharmacol. 7795-101. In a method as used in Chu et al., 2010, Molecular Pharmacol. 7795-101, HEK293 cells may be transfected with nucleic acid encoding VIPR2, for example human VIPR2 (“hVIPR2”), for example comprised in a vector such as pCDNA3.1 vector. Successful transformants may then be selected, for example using 800 μg/ml G418. Clonal stable cell lines may then be generated by limited dilution to single cells and then may be clonally expanded and tested for VIP -dependent cAMP response. For the cAMP assay, about 3000-15,000 cells (in about 4-25 μl) may be placed in a well of an assay plate. The next day, inhibitor or test inhibitor and VIP may be added in a volume about 1-2 percent of the initial volume. Assay plates may then be returned to a cell incubator for 30 min before addition of a one-half volume of cAMP conjugate and, relative to the amount of cAMP conjugate, an equal volume of anti-cAMP conjugate (Cisbio). After at least 1 h of room-temperature incubation, HTRF signal may be read, for example using Viewlux or EnVision (PerkinElmer Life and Analytical Sciences, Waltham, Mass.). The ratio of […] at 665 nm and 620 nm times 10,000 may be calculated and plotted.
as §2, §3

The target in assay [3] is T1, VIPR2. Briefly: % Activity: inhibition of VIP-induced cAMP elevation and β-arrestin recruitment (Table 2).
Source text: as §4, §1, §3

`CC(C)(C)c1ccc(S(=O)(=O)NC[C@@H](O)C[C@@H](Cc2ccccc2)C(=O)N[C@H]2c3ccccc3C[C@H]2O)cc1` [A, reference compound]: in assay [1] (Batch 1), the inhibition at 0.5 µM turned out to be 0%, the inhibition at 1 µM was determined as 18.1% and the inhibition at 5 µM was 56.7%. Besides, in assay [2] (Batch 1), the inhibition at 0.5 µM was 9.7%, the inhibition at 1 µM was determined as 13% and the inhibition at 5 µM was 72.1%.

For the compound `O=C(NC[C@@H](O)C[C@@H](Cc1ccccc1)C(=O)N[C@H]1c2ccccc2C[C@H]1O)c1ccc2ccccc2c1` [B], in assay [1] (Batch 1), the inhibition at 0.5 µM was -2.9%, the inhibition at 1 µM was found to be 11.1% and the inhibition at 5 µM is 9.7%. Also, in assay [2] (Batch 1), the inhibition at 0.5 µM was found to be 13.2%, the inhibition at 1 µM was 16.3% and the inhibition at 5 µM turned out to be 23.5%. Besides, the “% Activity” value in assay [3] worked out at 16.6%.

`O=C(NC[C@@H](O)C[C@@H](Cc1ccccc1)C(=O)N[C@H]1c2ccccc2C[C@H]1O)C1CC1` [Compound A1]: in assay [1] (Batch 1), the inhibition at 0.5 µM was -3.8%, the inhibition at 1 µM is 37% and the inhibition at 5 µM amounted to 29.1%. Also, in assay [2] (Batch 1), the inhibition at 0.5 µM was determined as 21%, the inhibition at 1 µM was found to be 21.1% and the inhibition at 5 µM was determined as 24%. The “% Activity” value in assay [3] is recorded as 26.55%.

Consider `O=C(NC[C@@H](O)C[C@@H](Cc1ccccc1)C(=O)N[C@H]1c2ccccc2C[C@H]1O)c1ccco1` [Compound A2], for which, in assay [1] (Batch 1), the inhibition at 0.5 µM stood at 30.3%, the inhibition at 1 µM turned out to be 27.7% and the inhibition at 5 µM came out at 33.3%. Further, in assay [2] (Batch 1), the inhibition at 0.5 µM came to 20.8%, the inhibition at 1 µM was 22.5% and the inhibition at 5 µM stood at 19.1%. Besides, in assay [3], the “% Activity” value turned out to be 26.2%.

Consider `Cc1cc(S(=O)(=O)NC[C@@H](O)C[C@@H](Cc2ccccc2)C(=O)N[C@H]2c3ccccc3C[C@H]2O)c(C)cc1Cl` [Compound A3], for which, in assay [1] (Batch 1), the inhibition at 0.5 µM was found to be 17.6%, the inhibition at 1 µM worked out at 30.2% and the inhibition at 5 µM was found to be 0.6%. In addition, in assay [2] (Batch 1), the inhibition at 0.5 µM was determined as 20.6%, the inhibition at 1 µM amounted to 21.6% and the inhibition at 5 µM is 41.1%. For the same compound, in assay [3], the “% Activity” value came out at 20.85%.

Regarding `CS(=O)(=O)NC[C@@H](O)C[C@@H](Cc1ccccc1)C(=O)N[C@H]1c2ccccc2C[C@H]1O` [Compound A5], in assay [1] (Batch 1), the inhibition at 0.5 µM was 17.3%, the inhibition at 1 µM came to 31.6% and the inhibition at 5 µM was determined as 23.4%. In assay [2] (Batch 1), the inhibition at 0.5 µM worked out at 21.4%, the inhibition at 1 µM was found to be 21.9% and the inhibition at 5 µM amounted to 18.5%. For the same compound, the “% Activity” value in assay [3] turned out to be 20.95%.

In the case of `O=C(NC[C@@H](O)C[C@@H](Cc1ccccc1)C(=O)N[C@H]1c2ccccc2C[C@H]1O)C(Cl)Cl` [Compound A6], in assay [1] (Batch 1), the inhibition at 0.5 µM turned out to be 9.5%, the inhibition at 1 µM was found to be 17.4% and the inhibition at 5 µM was 20%. Also, in assay [2] (Batch 1), the inhibition at 0.5 µM stood at 18.4%, the inhibition at 1 µM worked out at 18.3% and the inhibition at 5 µM came out at 19.6%. For the same compound, the “% Activity” value in assay [3] was determined as 19.8%.

Turning to `O=C(CCl)NC[C@@H](O)C[C@@H](Cc1ccccc1)C(=O)N[C@H]1c2ccccc2C[C@H]1O` [Compound A7], in assay [1] (Batch 1), the inhibition at 0.5 µM came to 9.9%, the inhibition at 1 µM was found to be 23.7% and the inhibition at 5 µM amounted to 17.5%. For the same compound, in assay [2] (Batch 1), the inhibition at 0.5 µM is 18.4%, the inhibition at 1 µM stood at 19.2% and the inhibition at 5 µM amounted to 15.6%. Also, the “% Activity” value in assay [3] turned out to be 16.55%.

Regarding `O=C(NC[C@@H](O)C[C@@H](Cc1ccccc1)C(=O)N[C@H]1c2ccccc2C[C@H]1O)C1CCCCCC1` [Compound A8], in assay [1] (Batch 1), the inhibition at 0.5 µM came to 24.4%, the inhibition at 1 µM was found to be 16.4% and the inhibition at 5 µM turned out to be 10.5%. Further, in assay [2] (Batch 1), the inhibition at 0.5 µM is 18.4%, the inhibition at 1 µM came out at 17% and the inhibition at 5 µM came out at 17%. The “% Activity” value in assay [3] was found to be 13.75%.

With `CC(C)CS(=O)(=O)NC[C@@H](O)C[C@@H](Cc1ccccc1)C(=O)N[C@H]1c2ccccc2C[C@H]1O` [Compound A11], in assay [1] (Batch 1), the inhibition at 0.5 µM came out at 7.1%, the inhibition at 1 µM worked out at 3.2% and the inhibition at 5 µM came to 20%. In assay [2] (Batch 1), the inhibition at 0.5 µM turned out to be 13.3%, the inhibition at 1 µM was 15.6% and the inhibition at 5 µM is 22.2%. Besides, in assay [3], the “% Activity” value was 21.1%.

Consider `CC(C)C(=O)NC[C@@H](O)C[C@@H](Cc1ccccc1)C(=O)N[C@H]1c2ccccc2C[C@H]1O` [Compound A13], for which, in assay [1] (Batch 1), the inhibition at 0.5 µM was -11.8%, the inhibition at 1 µM was -10.7% and the inhibition at 5 µM was -16.3%. For the same compound, in assay [2] (Batch 1), the inhibition at 0.5 µM was found to be 0.7%, the inhibition at 1 µM turned out to be 2.6% and the inhibition at 5 µM was -0.9%. Further, in assay [3], the “% Activity” value is recorded as −8.6%.

Consider `O=C(CCCCBr)NC[C@@H](O)C[C@@H](Cc1ccccc1)C(=O)N[C@H]1c2ccccc2C[C@H]1O` [Compound A15], for which, in assay [1] (Batch 1), the inhibition at 0.5 µM was determined as 1.7%, the inhibition at 1 µM was -28.8% and the inhibition at 5 µM was -10.6%. In addition, in assay [2] (Batch 1), the inhibition at 0.5 µM amounted to 11.7%, the inhibition at 1 µM came out at 12.9% and the inhibition at 5 µM was determined as 9.4%. Besides, the “% Activity” value in assay [3] is given as −0.6%.

As for `O=C(N[C@H]1c2ccccc2C[C@H]1O)[C@H](Cc1ccccc1)C[C@H](O)CNS(=O)(=O)c1ccc([N+](=O)[O-])cc1` [Compound A27, reference compound], the inhibition at 0.5 µM in assay [1] (Batch 1) stood at 37.7%; in assay [1] (Batch 2) it was 15.6%; in assay [1] (Batch 3) it was 2.6%; in assay [2] (Batch 1), 42.6%; in assay [2] (Batch 2), 38.7%; in assay [2] (Batch 3) it was 74.3%. Besides, the inhibition at 1 µM in assay [1] (Batch 1) was 74.6%; in assay [1] (Batch 2), 38.6%; in assay [1] (Batch 3) it was -2.6%; in assay [2] (Batch 1) it was 71.3%; in assay [2] (Batch 2), 70.9%; in assay [2] (Batch 3), 86.1%. For the same compound, the inhibition at 5 µM stood at 88.7% in assay [1] (Batch 1); 92% in assay [1] (Batch 2); 29.3% in assay [1] (Batch 3); 99.1% in assay [2] (Batch 1); 100% in assay [2] (Batch 2); 97.8% in assay [2] (Batch 3).

Values taken from patent US20150239831A1, “INHIBITORS OF CENTRAL NERVOUS SYSTEM VASOACTIVE INHIBITORY PEPTIDE RECEPTOR 2” (The Trustees Of Columbia University In The City Of New York, priority 2012, published 2015).
